Experimental data published in PMC7432809, “Antimicrobial Activity of Small Synthetic Peptides Based on the Marine Peptide Turgencin A: Prediction of Antimicrobial Peptide Sequences in a Natural Peptide and Strategy for Optimization of Potency” (International Journal of Molecular Sciences, 2020).
Where no end group is shown, it is not given here.

Assays:
E. coli K12 (pCSS962) = test: Real-time membrane integrity assay (luciferase, D-luciferin); type: cell-based, Escherichia coli; conditions: lowest concentration tested
Source text: (§1) Based on the results from antibacterial screening and the bacterial killing experiment, StAMP-6-10 were further studied for their immediate effect on the membrane integrity and viability on B. subtilis 168 and E. coli K12. In the integrity assay, both bacteria are carrying the luciferase lucGR gene within the plasmid pCSS962. When a compound disrupts the membrane, externally added D-luciferin can diffuse into the cells and function as a substrate for the luciferase enzyme. This, in turn, causes the emission of light as relative luminescence units (RLU), a signal whose strength is relative to the degree of membrane disruption in living cells. If the test compound affects the membrane sufficiently to cause bacterial death, the RLU signal will increase until the bacterial ATP storage is empty. At this time, the RLU signal will decrease in line with the decreasing ATP concentrations, as the enzymatic reaction gradually stops. […] Following membrane disruption, the RLU will reach its peak and start to decrease due to reduced cell numbers. In the assay setup used herein, RLU was measured over a period of 3 min. The short time period was selected as many membrane disruptive compounds usually affect the bacterial membranes immediately. […]

[1] = system: B. subtilis 168 (pCSS962); test: as above; type: cell-based, Bacillus subtilis; conditions: lowest concentration tested
Source text: as §1

E. coli K12 (pCGLS-11) = test: Real-time bacterial cell viability assay (lux operon); type: cell-based, Escherichia coli; conditions: lowest concentration tested
Source text: (§2) A real-time cell viability assay was used to investigate the bactericidal effect of StAMP-6-10. B. subtilis 168 contains a chromosomally integrated lux operon, and E. coli K12 a plasmid-borne lux operon. Both strains emit light as long as they have an active metabolism. If a compound reduces the metabolic activity of the bacteria it will reduce the viability of the cells. […] The decrease in light emission caused by StAMP-8-10 shown in both assays confirmed that these three peptides killed both strains at 50 µg/mL, but not as rapidly as the control chlorhexidine. The same activity observed for StAMP-8-10 in the membrane integrity assay was also observed in both viability assays (Figures S7–S12). […] Only at the lowest concentration tested (0.8 µg/mL), was there no observed membrane activity for these assays.
(§3) A real-time cell viability assay (modified from) was performed using B. subtilis 168 carrying an optimized luxABCDE operon controlled by the promoter Pveg, and E. coli K12 carrying the plasmid pCGLS-11 [53] with the luxCDABE operon from Xenorhabdus luminescence. The procedure was conducted as previously described. The bacteria (~5 × 10^7 bacteria/mL) were subjected to ranging concentrations of StAMP-6-10 (50–3.1 µg/mL) and the positive control to chlorhexidine acetate (assay concentrations 100–1.6 µg/mL). MQ-H2O was used as a negative control. […]

B. subtilis 168 = test: as above; type: cell-based, Bacillus subtilis; conditions: lowest concentration tested
Source text: as §2, §3

G- strains = test: Antibacterial assay, MIC range over G- strains; type: cell-based; conditions: range over the two G- test strains
Description: (§4) The synthesized peptides were screened for antibacterial activity against five strains of G+ bacteria: B. subtilis (Bs, ATCC 23857), C. glutamicum (Cg, ATCC 13032), S. aureus (Sa, ATCC 9144), Micrococcus luteus (Ml), B. megaterium (Bm) (the last two were obtained from professor Olaf B. Styrvold, UiT The Arctic University of Norway).
(§5) Two strains of G- bacteria, P. aeruginosa (Pa, ATCC 27853) and E. coli (Ec, ATCC 25922), were also used. Cultures stored at -80 °C in glycerol were transferred to Müller–Hinton plates (MH, Difco Laboratories, Detroit, MI, USA) and incubated for 24 h at 35 °C. Colonies of each strain were transferred to 5 mL liquid MH medium and left shaking (600 rpm) at room temperature overnight. An aliquot of actively growing bacteria (20 µL) was inoculated in 5 mL MH medium and left shaking for 2 h at room temperature. In order to have a sensitive bioassay, the bacterial cultures were diluted with medium to only 2.5–3 × 10^4 bacteria/mL and an aliquot of 50 µL was added to each well in 96 microwell plates (Thermo Fisher Scientific, Roskilde, Denmark) preloaded with peptide solution (50 µL). The antibacterial assays were performed as previously described. The microtiter plates were incubated for 24 h at 35 °C with optical density (595 nm) recorded every hour using an Envision 2103 multilabel reader, controlled by a Wallac Envision manager (PerkinElmer, Waltham, MA, USA). […]

[2] = system: Escherichia coli (ATCC 25922); test: microbe, parasite or virus in culture; type: cell-based; conditions: ATCC 25922, 24 h
Description: (§6) Two strains of G- bacteria, P. aeruginosa (Pa, ATCC 27853) and E. coli (Ec, ATCC 25922), were also used. Cultures stored at -80 °C in glycerol were transferred to Müller–Hinton plates (MH, Difco Laboratories, Detroit, MI, USA) and incubated for 24 h at 35 °C. Colonies of each strain were transferred to 5 mL liquid MH medium and left shaking (600 rpm) at room temperature overnight. An aliquot of actively growing bacteria (20 µL) was inoculated in 5 mL MH medium and left shaking for 2 h at room temperature. In order to have a sensitive bioassay, the bacterial cultures were diluted with medium to only 2.5–3 × 10^4 bacteria/mL and an aliquot of 50 µL was added to each well in 96 microwell plates (Thermo Fisher Scientific, Roskilde, Denmark) preloaded with peptide solution (50 µL). The antibacterial assays were performed as previously described. The microtiter plates were incubated for 24 h at 35 °C with optical density (595 nm) recorded every hour using an Envision 2103 multilabel reader, controlled by a Wallac Envision manager (PerkinElmer, Waltham, MA, USA). The minimum inhibitory concentration (MIC) was defined as the sample concentration showing an optical density less than 10% of the negative (growth) control, consisting of bacteria and MQ-H2O. Oxytetracycline (concentrations ranging from 20–0.02 µg/mL, Sigma-Aldrich) and indolicidin (concentration ranging from 200–0.2 µg/mL, Sigma-Aldrich) served as a positive (inhibition) control. The synthetic peptides were tested for antibacterial activity in concentrations ranging from 250 to 0.5 µg/mL in two-fold dilutions. All tests were performed in triplicates.

[3] = system: Pseudomonas aeruginosa (ATCC 27853); test: microbe, parasite or virus in culture; type: cell-based; conditions: ATCC 27853, 24 h
Description: as §6

[4] = system: Bacillus subtilis (ATCC 23857); test: microbe, parasite or virus in culture; type: cell-based; conditions: ATCC 23857, 24 h
Description: as §4, §6

Micrococcus luteus = test: microbe, parasite or virus in culture; type: cell-based; conditions: 24 h
Description: as §4, §6

Bacillus megaterium = test: microbe, parasite or virus in culture; type: cell-based; conditions: Bacillus, 24 h
Description: as §4, §6

[5] = system: Staphylococcus aureus (ATCC 9144); test: microbe, parasite or virus in culture; type: cell-based; conditions: ATCC 9144, 24 h
Description: as §4, §6

[6] = system: Corynebacterium glutamicum (ATCC 13032); test: microbe, parasite or virus in culture; type: cell-based; conditions: ATCC 13032, 24 h
Description: as §4, §6

G+ strains = test: Antibacterial assay, MIC range over G+ strains; type: cell-based; conditions: range over the five G+ test strains
Description: as §4, §5

Rhodotorula sp. = test: microbe, parasite or virus in culture; type: cell-based; conditions: 48 h
Description: (§7) StAMP-1–11 were screened for antifungal activity against C. albicans (Ca, ATCC 10231), A. pullulans (Ap) and Rhodotorula sp. (Rh) (the last two were obtained from professor Arne Tronsmo, The Norwegian University of Life Sciences, Ås, Norway). The antifungal assay was performed as previously described with a few modifications. Briefly, fungal spores were dissolved in potato dextrose broth (Difco Laboratories) with 2% D(+)-glucose (Merck, Darmstadt, Germany) to a concentration of 4 × 10^5 spores/mL. The spores (50 µL) were inoculated on 96 microwell plates (Thermo Fisher Scientific) containing the synthetic peptides (50 µL) and controls (water or antibiotic). The peptides were diluted in MQ-H2O at final concentrations ranging from 250–3.9 µg/mL in two-fold serial dilutions. Triclosan (Sigma-Aldrich, Steinheim, Germany) was used as a positive (antifungal) control (32–0.25 µg/mL), and MQ-H2O as a negative (growth) control. Cultures were grown in room temperature for 24 h (Ca) and 48 h (Ap and Rh). Growth inhibition was determined by measuring OD values at 600 nm by a microplate reader (Synergy H1 Hybrid Multi-Mode Reader, BioTek, Winooski, VT, USA). […] All experiments were done in triplicate.

[7] = system: Candida albicans (ATCC 10231); test: microbe, parasite or virus in culture; type: cell-based; conditions: ATCC 10231, 24 h
Description: as §7

Aureobasidium pullulans = test: microbe, parasite or virus in culture; type: cell-based; conditions: 48 h
Description: as §7

three fungal strains = type: cell-based; conditions: 24 h
Description: as §7, with “Cultures were grown in room temperature for 24 h (Ca) and 48 h (Ap and Rh).” left out

[8] = system: all seven bacterial test strains; type: cell-based; conditions: 24 h
Description: as §4, §5

[H]/N=C(\N/C(=N/[H])NCCCCCCNC(=N)NC(=N)Nc1ccc(Cl)cc1)Nc1ccc(Cl)cc1 [Chlorhexidine]
concentration with no observed membrane activity (E. coli K12 (pCSS962)): 0.8 µg/mL | concentration with no observed membrane activity [1]: 0.8 µg/mL | concentration with no observed membrane activity (E. coli K12 (pCGLS-11)): 0.8 µg/mL | concentration with no observed membrane activity (B. subtilis 168): 0.8 µg/mL

GKKPWWWKAK-NH2 [StAMP-7]
MIC values, range against G- strains (G- strains): 31.3 to 250 µg/mL | Antimicrobial Activity (MIC) Ec [2]: 31.3 µg/mL | Antimicrobial Activity (MIC) Pa [3]: 250 µg/mL | Antimicrobial Activity (MIC) Bs [4]: 3.9 µg/mL | Antimicrobial Activity (MIC) Ml (Micrococcus luteus): 31.3 µg/mL | Antimicrobial Activity (MIC) Bm (Bacillus megaterium): 1.0 µg/mL | Antimicrobial Activity (MIC) Sa [5]: 125 µg/mL | Antimicrobial Activity (MIC) Cg [6]: 2.0 µg/mL | MIC values, range against G+ strains (G+ strains): 1.0 to 125 µg/mL | Antimicrobial Activity (MIC) Rh (Rhodotorula sp.): 15.6 µg/mL | Antimicrobial Activity (MIC) Ca [7]: 31.3 µg/mL | Antimicrobial Activity (MIC) Ap (Aureobasidium pullulans): 15.6 µg/mL

GKKWWWWKAK-NH2 [StAMP-8]
MIC, range against the three fungal strains (three fungal strains): 7.8 to 15.6 µg/mL | Antimicrobial Activity (MIC) Ec [2]: 62.5 µg/mL | Antimicrobial Activity (MIC) Pa [3]: 125 µg/mL | Antimicrobial Activity (MIC) Bs [4]: 7.8 µg/mL | Antimicrobial Activity (MIC) Ml (Micrococcus luteus): 15.6 µg/mL | Antimicrobial Activity (MIC) Bm (Bacillus megaterium): 3.9 µg/mL | Antimicrobial Activity (MIC) Sa [5]: 125 µg/mL | Antimicrobial Activity (MIC) Cg [6]: 7.8 µg/mL | Antimicrobial Activity (MIC) Rh (Rhodotorula sp.): 15.6 µg/mL | Antimicrobial Activity (MIC) Ca [7]: 15.6 µg/mL | Antimicrobial Activity (MIC) Ap (Aureobasidium pullulans): 7.8 µg/mL

GRRPWWWRAR-NH2 [StAMP-9]
Antimicrobial Activity (MIC) Ec [2]: 7.8 µg/mL | Antimicrobial Activity (MIC) Pa [3]: 31.3 µg/mL | Antimicrobial Activity (MIC) Bs [4]: 3.9 µg/mL | Antimicrobial Activity (MIC) Ml (Micrococcus luteus): 3.9 µg/mL | Antimicrobial Activity (MIC) Bm (Bacillus megaterium): 1.0 µg/mL | Antimicrobial Activity (MIC) Sa [5]: 7.8 µg/mL | Antimicrobial Activity (MIC) Cg [6]: 2.0 µg/mL | MIC values, range against all seven bacterial test strains [8]: 1.0 to 31.3 µg/mL | Antimicrobial Activity (MIC) Rh (Rhodotorula sp.): 15.6 µg/mL | Antimicrobial Activity (MIC) Ca [7]: 31.3 µg/mL | Antimicrobial Activity (MIC) Ap (Aureobasidium pullulans): 31.3 µg/mL
